Activity calls are given as the source filed them. The rule behind the calls is not given here.
How the values were obtained:
Dendritic cell = assay: Inhibition of LPS-induced IL-12 production in bone marrow-derived dendritic cells (unknown origin) at 1 to 100 ng/mL; format: functional, cell-based
Mus musculus [1] = assay: Toxicity in C57BL/6 mouse assessed as induction of body weight loss at 0.1 to 3 mg/kg, iv dosed once daily for 4 days; format: organism-based; design: dose 0.1-3 mg/kg, route intravenous; settings: in vivo, 96 h
Mus musculus [2] = organism: Mus musculus; assay: Immunosuppressive activity in SRBC immunized mouse assessed as suppression of B-cell mediated immune response; format: functional, organism-based
Mus musculus [3] = assay: Toxicity in male ICR-SPF mouse assessed as induction of body weight changes at 100 mg/kg, iv administered as single dose measured 14 days post dose; format: organism-based; design: dose 100 mg/kg, route intravenous; settings: in vivo, 336 h
Mus musculus [4] = assay: Intestinal toxicity in C57BL/6 mouse assessed as induction of intestinal dilation at 1 mg/kg, iv dosed once daily for 4 days; format: organism-based; design: dose 1 mg/kg, route intravenous; settings: in vivo, 96 h
Mus musculus [5] = assay: Toxicity in female ICR-SPF mouse assessed as mortality incidences at 10 mg/kg, iv administered as single dose measured 14 days post dose; format: organism-based; design: dose 10 mg/kg, route intravenous; settings: in vivo, 336 h
Mus musculus [6] = assay: Toxicity in male ICR-SPF mouse assessed as mortality incidences at 10 mg/kg, iv administered as single dose measured 14 days post dose; format: organism-based; design: dose 10 mg/kg, route intravenous; settings: in vivo, 336 h
Mus musculus [7] = assay: Immunosuppressive activity in zymosan A-induced arthritis C57BL/6 mouse model assessed as reduction in pLN weight increase dosed after zymosan A challenge; format: functional, organism-based
Mus musculus [8] = assay: Toxicity in male ICR-SPF mouse assessed as autopsy changes at 10 mg/kg, iv administered as single dose measured 14 days post dose; format: organism-based; design: dose 10 mg/kg, route intravenous; settings: in vivo, 336 h
Mus musculus [9] = assay: Toxicity in iv dosed male ICR-SPF mouse administered as single dose measured 14 days post dose; format: organism-based; settings: in vivo, 336 h
Mus musculus [10] = assay: Immunosuppressive activity in carrageenan-induced paw edema C57BL/6 mouse model assessed as reduction in pLN weight increase dosed after carrageenan challenge; format: functional, organism-based
Mus musculus [11] = assay: Toxicity in male ICR-SPF mouse assessed as autopsy changes at 100 mg/kg, iv administered as single dose measured 14 days post dose; format: organism-based; design: dose 100 mg/kg, route intravenous; settings: in vivo, 336 h
Mus musculus [12] = assay: Toxicity in male ICR-SPF mouse assessed as autopsy changes at 30 mg/kg, iv administered as single dose measured 14 days post dose; format: organism-based; design: dose 30 mg/kg, route intravenous; settings: in vivo, 336 h
Mus musculus [13] = assay: Toxicity in male ICR-SPF mouse assessed as mortality incidences at 100 mg/kg, iv administered as single dose measured 14 days post dose; format: organism-based; design: dose 100 mg/kg, route intravenous; settings: in vivo, 336 h
Mus musculus [14] = assay: Toxicity in C57BL/6 mouse assessed as induction of spleen weight loss at 0.1 to 3 mg/kg, iv dosed once daily for 4 days; format: organism-based; design: dose 0.1-3 mg/kg, route intravenous; settings: in vivo, 96 h
Mus musculus [15] = assay: Toxicity in female ICR-SPF mouse assessed as autopsy changes at 10 mg/kg, iv administered as single dose measured 14 days post dose; format: organism-based; design: dose 10 mg/kg, route intravenous; settings: in vivo, 336 h
T-cell [16] = assay: Immunosuppressive activity in T cells (unknown origin) assessed as inhibition of Con A-induced cell proliferation at 1 to 100 ng/mL; format: functional, cell-based
[17] = Toxicity in LPS-induced bone marrow-derived dendritic cells (unknown origin) assessed as effect on cell viability at 1 to 100 ng/mL; format: cell-based
Mus musculus [18] = assay: Toxicity in iv dosed female ICR-SPF mouse administered as single dose measured 14 days post dose; format: organism-based; settings: in vivo, 336 h
Mus musculus [19] = assay: Toxicity in female ICR-SPF mouse assessed as mortality incidences at 100 mg/kg, iv administered as single dose measured 14 days post dose; format: organism-based; design: dose 100 mg/kg, route intravenous; settings: in vivo, 336 h
Mus musculus [20] = assay: Toxicity in male ICR-SPF mouse assessed as induction of body weight changes at 10 mg/kg, iv administered as single dose measured 14 days post dose; format: organism-based; design: dose 10 mg/kg, route intravenous; settings: in vivo, 336 h
Mus musculus [21] = assay: Toxicity in female ICR-SPF mouse assessed as induction of body weight changes at 30 mg/kg, iv administered as single dose measured 14 days post dose; format: organism-based; design: dose 30 mg/kg, route intravenous; settings: in vivo, 336 h
Macrophage = assay: Inhibition of nitric oxide production in bone marrow-derived macrophages (unknown origin) at 1 to 100 ng/mL; format: functional, cell-based
Mus musculus [22] = assay: Toxicity in male ICR-SPF mouse assessed as induction of body weight changes at 30 mg/kg, iv administered as single dose measured 14 days post dose; format: organism-based; design: dose 30 mg/kg, route intravenous; settings: in vivo, 336 h
Mus musculus [23] = assay: Toxicity in C57BL/6 mouse assessed as induction of body weight loss at 1 mg/kg, iv dosed once daily for 4 days; format: organism-based; design: dose 1 mg/kg, route intravenous; settings: in vivo, 96 h
Mus musculus [24] = assay: Toxicity in female ICR-SPF mouse assessed as induction of body weight changes at 10 mg/kg, iv administered as single dose measured 14 days post dose; format: organism-based; design: dose 10 mg/kg, route intravenous; settings: in vivo, 336 h
Mus musculus [25] = assay: Toxicity in female ICR-SPF mouse assessed as mortality incidences at 30 mg/kg, iv administered as single dose measured 14 days post dose; format: organism-based; design: dose 30 mg/kg, route intravenous; settings: in vivo, 336 h
RAW264.7 = assay: Inhibition of nitric oxide production in mouse RAW264.7 cells at 1 to 100 ng/mL; format: functional, cell-based
B-cell [26] = assay: Immunosuppressive activity in B cells (unknown origin) assessed as inhibition of LPS-induced cell proliferation at 1 to 100 ng/mL; format: functional, cell-based
Mus musculus [27] = assay: Toxicity in male ICR-SPF mouse assessed as mortality incidences at 30 mg/kg, iv administered as single dose measured 14 days post dose; format: organism-based; design: dose 30 mg/kg, route intravenous; settings: in vivo, 336 h
Mus musculus [28] = assay: Toxicity in female ICR-SPF mouse assessed as autopsy changes at 100 mg/kg, iv administered as single dose measured 14 days post dose; format: organism-based; design: dose 100 mg/kg, route intravenous; settings: in vivo, 336 h
Mus musculus [29] = assay: Toxicity in female ICR-SPF mouse assessed as induction of body weight changes at 100 mg/kg, iv administered as single dose measured 14 days post dose; format: organism-based; design: dose 100 mg/kg, route intravenous; settings: in vivo, 336 h
Mus musculus [30] = assay: Toxicity in female ICR-SPF mouse assessed as autopsy changes at 30 mg/kg, iv administered as single dose measured 14 days post dose; format: organism-based; design: dose 30 mg/kg, route intravenous; settings: in vivo, 336 h
B-cell [31] = assay: Immunosuppressive activity in B cells (unknown origin) assessed as inhibition of LPS-induced cell proliferation at 3 to 30 ng/mL; format: functional, cell-based
T-cell [32] = assay: Immunosuppressive activity in T cells (unknown origin) assessed as inhibition of Con A-induced cell proliferation at 3 to 30 ng/mL; format: functional, cell-based

## COc1cc2c(c(OC)c1OC)-c1ccc(SC)c(=O)cc1C=CC2
Dendritic cell
  inhibition: Dose-dependent effect
Mus musculus [1]
  Activity: Non-toxic
Mus musculus [2]
  Activity: Dose-dependent effect
Mus musculus [3]
  Activity: Non-toxic
Mus musculus [4]
  Activity: Non-toxic
Mus musculus [5]
  Activity: Non-toxic
Mus musculus [6]
  Activity: Non-toxic
Mus musculus [7]
  inhibition: Dose-dependent effect
Mus musculus [8]
  Activity: Non-toxic
Mus musculus [9]
  MLD: > 100 mg/kg
Mus musculus [10]
  inhibition: Dose-dependent effect
Mus musculus [11]
  Activity: Non-toxic
Mus musculus [12]
  Activity: Non-toxic
Mus musculus [13]
  Activity: Non-toxic
Mus musculus [14]
  Activity: Non-toxic
Mus musculus [15]
  Activity: Non-toxic
T-cell [16]
  inhibition: Dose-dependent effect
[17]
  Activity: Non-toxic
Mus musculus [18]
  MLD: > 100 mg/kg
Mus musculus [19]
  Activity: Non-toxic
Mus musculus [20]
  Activity: Non-toxic
Mus musculus [21]
  Activity: Non-toxic
Macrophage
  inhibition: inactive
Mus musculus [22]
  Activity: Non-toxic
Mus musculus [23]
  Activity: Non-toxic
Mus musculus [24]
  Activity: Non-toxic
Mus musculus [25]
  Activity: Non-toxic
RAW264.7
  inhibition: Active
B-cell [26]
  inhibition: Dose-dependent effect
Mus musculus [27]
  Activity: Non-toxic
Mus musculus [28]
  Activity: Non-toxic
Mus musculus [29]
  Activity: Non-toxic
Mus musculus [30]
  Activity: Non-toxic

## COc1cc(C/C=C/c2ccc(OC)c(=O)cc2)cc(OC)c1OC
B-cell [31]
  inhibition: inactive
T-cell [32]
  inhibition: inactive

## COc1ccc(C/C=C/c2ccc(OC)c(=O)cc2)c(OC)c1OC
B-cell [31]
  inhibition: inactive
T-cell [32]
  inhibition: inactive

## COc1cc2c(c(OC)c1OC)-c1ccc(SC)c(=O)cc1CCC2
Dendritic cell
  inhibition: Dose-dependent effect
Mus musculus [1]
  Activity: Non-toxic
Mus musculus [2]
  Activity: Dose-dependent effect
Mus musculus [3]
  Activity: Non-toxic
Mus musculus [4]
  Activity: Non-toxic
Mus musculus [5]
  Activity: Non-toxic
Mus musculus [6]
  Activity: Non-toxic
Mus musculus [7]
  inhibition: Dose-dependent effect
Mus musculus [8]
  Activity: Non-toxic
Mus musculus [9]
  MLD: > 100 mg/kg
Mus musculus [10]
  inhibition: Dose-dependent effect
Mus musculus [11]
  Activity: Non-toxic
Mus musculus [12]
  Activity: Non-toxic
Mus musculus [13]
  Activity: Non-toxic
Mus musculus [14]
  Activity: Non-toxic
Mus musculus [15]
  Activity: Non-toxic
T-cell [16]
  inhibition: Dose-dependent effect
[17]
  Activity: Non-toxic
Mus musculus [18]
  MLD: > 100 mg/kg
Mus musculus [19]
  Activity: Non-toxic
Mus musculus [20]
  Activity: Non-toxic
Mus musculus [21]
  Activity: Non-toxic
Macrophage
  inhibition: inactive
Mus musculus [22]
  Activity: Non-toxic
Mus musculus [23]
  Activity: Non-toxic
Mus musculus [24]
  Activity: Non-toxic
Mus musculus [25]
  Activity: Non-toxic
RAW264.7
  inhibition: Active
B-cell [26]
  inhibition: Dose-dependent effect
Mus musculus [27]
  Activity: Non-toxic
Mus musculus [28]
  Activity: Non-toxic
Mus musculus [29]
  Activity: Non-toxic
Mus musculus [30]
  Activity: Non-toxic

## COc1ccc(-c2ccc(OC)c(=O)cc2)c(OC)c1OC
B-cell [31]
  inhibition: Active
T-cell [32]
  inhibition: Active

## COc1cc2c(c(OC)c1OC)-c1ccc(SC)c(=O)cc1[C@@H](NC(=O)C1CC1C)CC2 (stereo partly specified)
Mus musculus [1]
  Activity: Toxic
Mus musculus [4]
  Activity: Toxic
Mus musculus [14]
  Activity: Toxic

## COc1ccc(-c2ccc(SC)c(=O)cc2)c(OC)c1OC
B-cell [31]
  inhibition: Active
T-cell [32]
  inhibition: Active

## COc1cc(/C=C/c2ccc(OC)c(=O)cc2)cc(OC)c1OC
B-cell [31]
  inhibition: inactive
T-cell [32]
  inhibition: inactive

## COc1ccc(/C=C/c2ccc(OC)c(=O)cc2)c(OC)c1OC
B-cell [31]
  inhibition: inactive
T-cell [32]
  inhibition: inactive
